Literature values, collected in patent US11065330B2, “Induction of antigen-specific tolerance by peripheral phagocytosis” (PLS-Design GmbH, priority 2014, dated 2021).
“Also recorded” adds a separate entry of the source. Where two headings read alike, the source gives them in different places. Where no end group is shown, it is not given here.

Legend:
[1] = biological target: murine CD22 (Mus musculus, UniProt P35329)
[2] = for solubility in 1:5 solution of ethanol:PBS: 1:5 ethanol:PBS, pH 7.2
[3] = tested on: Lyme arthritis and collagen-induced arthritis in mice; conditions: diet, 20 ng/mouse/day
[4] = tested on: OVA-induced allergic asthma in mice; conditions: 10 ng with 100 μg OVA immunotherapy
[5] = tested on: NOD mice
[6] = tested on: EAE model; conditions: i.p. 5 μg/kg every 2 days
[7] = tested on: human polymorphonuclear leukocyte (PMN) transendothelial migration; conditions: read-out: EC50, reduction of PMN transendothelial migration
[8] = tested on: mouse model of peritonitis; conditions: 100 ng dose
[9] = tested on: multiple sclerosis
[10] = tested on: NF-kappa B translocation; conditions: read-out: concentration for 50% inhibition
[11] = tested on: IL-4 gene transcription; conditions: read-out: concentration for 50% inhibition
[12] = tested on: phagocytes; conditions: for maximal migration of phagocytes, increase: at about 100 nM
[13] = tested on: isolated rat cardiomyocytes; set-up: dose or concentration left out as unconfirmed; conditions: preincubation 2-3 hours, GSM or exogenous NAC
[14] = tested on: cystic fibrosis; conditions: oral 600 mg to 1000 mg three times daily, 4 weeks
[15] = tested on: ovalbumin-specific IgE and IgG1 responses
[16] = tested on: peripheral blood T cells
[17] = not given; remark: listed apart in the source
[18] = tested on: intestinal ischaemia/reperfusion injury model; conditions: 10 mg/kg i.v., rats
[19] = tested on: rheumatoid arthritis; conditions: three months, on methotrexate
[20] = for time detectable in serum by HPLC: rats
[21] = tested on: calcium metabolism; conditions: compared to 1,25-(OH)2D3
[22] = tested on: psoriasis; conditions: more than 10 years clinical use
[23] = tested on: OVA-induced allergy in mice; conditions: topical calcipotriol, then transcutaneous OVA with CpG adjuvant
[24] = tested on: asthma exacerbation; conditions: six months, budesonide 800 μg/d and cholecalciferol 500 IU
[25] = tested on: alternative pathway of complement activation (C3) in sera from guinea pigs; conditions: read-out: IC50 of haemolytic activity
[26] = tested on: baboon model of Escherichia coli sepsis; conditions: 10 mg/kg i.v. bolus then 60 μg/kg/min infusion
[27] = tested on: alternative pathway of complement activation (C3) in sera from rats; conditions: read-out: IC50 of haemolytic activity
[28] = tested on: alternative pathway of complement activation (C3) in sera from mice; conditions: read-out: IC50 of haemolytic activity
[29] = tested on: NOD/Lt mice
[30] = human, in vivo
[31] = tested on: adjuvant arthritis
[32] = tested on: type 1 diabetes
[33] = tested on: OVA-induced allergic airway inflammation; conditions: intranasal 10 μg every fourth day, 3 weeks
[34] = tested on: IL-4/IL-13-mediated effects in murine model of allergy; conditions: 50 μg pre and post OVA, then 30 μg twice a day, day 1 to 8
[35] = 1.0 g/liter in drinking water, 8 days

Chain of murine CD22 (P35329 22-868): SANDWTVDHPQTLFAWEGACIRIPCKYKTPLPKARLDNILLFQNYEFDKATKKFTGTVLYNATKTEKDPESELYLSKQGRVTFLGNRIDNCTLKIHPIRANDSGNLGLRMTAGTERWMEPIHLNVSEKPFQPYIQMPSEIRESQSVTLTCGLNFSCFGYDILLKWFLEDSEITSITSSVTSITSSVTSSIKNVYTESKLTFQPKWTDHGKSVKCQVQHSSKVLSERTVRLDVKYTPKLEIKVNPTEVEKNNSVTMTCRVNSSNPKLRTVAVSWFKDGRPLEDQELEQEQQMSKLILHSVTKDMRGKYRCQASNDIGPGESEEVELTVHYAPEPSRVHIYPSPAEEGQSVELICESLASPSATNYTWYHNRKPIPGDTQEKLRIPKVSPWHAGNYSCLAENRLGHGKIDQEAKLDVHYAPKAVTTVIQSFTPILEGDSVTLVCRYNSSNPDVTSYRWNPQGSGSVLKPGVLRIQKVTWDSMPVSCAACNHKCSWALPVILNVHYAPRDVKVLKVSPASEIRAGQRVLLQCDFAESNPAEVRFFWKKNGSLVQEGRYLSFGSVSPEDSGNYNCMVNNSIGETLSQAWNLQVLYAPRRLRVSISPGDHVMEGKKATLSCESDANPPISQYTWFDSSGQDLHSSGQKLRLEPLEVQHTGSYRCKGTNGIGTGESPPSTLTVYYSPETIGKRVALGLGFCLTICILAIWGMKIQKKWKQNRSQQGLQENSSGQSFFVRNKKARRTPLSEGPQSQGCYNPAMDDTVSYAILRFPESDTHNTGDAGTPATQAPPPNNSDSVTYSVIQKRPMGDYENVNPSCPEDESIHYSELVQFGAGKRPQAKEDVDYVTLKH

9-biphenylacetyl-N-glycolylneuraminic acid-α2-6-galactose-β1-4-N-acetylglucosamine-β-ethylamine [6′-^BPANeuGc]
affinity for murine CD22, fold higher than natural ligand NeuGcα2-6Galβ1-4GlcNAc-β-ethylamine [1]: 200 fold

C=C1/C(=C\C=C2/CCC[C@]3(C)[C@@H]([C@H](C)CCCC(C)(C)O)CC[C@@H]23)C[C@@H](O)C[C@@H]1O [1,25-(OH)2D3, 1α,25-dihydroxyvitamin D3]
solubility in 1:5 solution of ethanol:PBS [2]: approx. 0.15 mg/ml
solubility in ethanol [2]: approx. 50 mg/ml
progression of arthritis and hypercalcemia [3]: effective in inhibiting the progression of arthritis without producing hypercalcemia
airway hyper-responsiveness [4]: significantly inhibited airway hyper-responsiveness
diabetes development [5]: prevented the development of diabetes; also recorded: prevented diabetes onset
treated mice in which appearance of paralysis was prevented [6]: 70%

CC/C=C\C[C@@H](O)/C=C/C=C\C=C\C=C\[C@@H](O)[C@@H](O)C/C=C\CCC(=O)O [17(R)-Resolvin D1]
EC50 [7]: ~0.03 µM
maximal inhibition of leukocyte infiltration [8]: ~35%

C=C1CC[C@H](O)C/C1=C/C=C1\CCC[C@]2(C)[C@@H]([C@H](C)CCCC(C)(C)O)CC[C@@H]12 [25-OH-D3]
serum level to be kept to avoid toxicity (based on experiments in the rat): below 250 ng/ml
serum level at which toxicity occurs (rat, in vivo): ≥ 500 ng/mL
adverse effects ([9]; 1,000 to 40,000 IU/day): no adverse effects
number of new lesions by MRI ([9]; oral 4,000-40,000 IU/day, 28 weeks): significant decrease in the number of new lesions

CC(=O)Oc1ccccc1C(=O)O [ASA, acetylsalicylic acid]
IC50 [10]: ~3000 µM
IC50 [11]: ~1000 µM

Nc1ncnc2c1ncn2[C@@H]1O[C@H](COP(=O)(O)OP(=O)(O)OP(=O)(O)O)[C@@H](O)[C@H]1O [ATP]
concentration effecting maximal migration of phagocytes [12]: about 100 nM
maximal migration of phagocytes, increase [12]: threefold

CSC[C@H](NC(=O)CC[C@H](N)C(=O)O)C(=O)NCC(=O)O [GSM, S-Methylglutathione]
protection against deleterious effects of TNF-alpha on contraction [13]: protected

CC(=O)N[C@@H](CS)C(=O)O [NAC, N-acetyl-L-cysteine]
safety and efficacy of high doses [14]: safe and effective
decrease of ovalbumin-specific IgE ([15]; 0.5 g/liter in drinking water): ~30%
decrease of ovalbumin-specific IgG1 ([15]; 0.5 g/liter in drinking water): ~30%
decrease of ovalbumin-specific IgE response [15, 35]: more than 70%
decrease of ovalbumin-specific IgG1 response [15, 35]: more than 70%
protection against deleterious effects of TNF-alpha on contraction [13]: not protected
cytotoxicity in resting T cells ([16]; 1 mM to 20 mM, 3 day period, seven donors): nontoxic
T cell function and growth ([16]; 10 mM): effective enhancer of T cell function

O=C([O-])c1ccccc1O.[Na+] [SA, sodium salicylate]
solubility in water ([2]; 20° C.): 2000 µg/mL

NC(N)=NCCC[C@H](NC(=O)COCC(c1ccccc1)c1ccccc1)C(=O)O [SB290157]
in vivo half-life [17]: short in vivo half-life
blood pressure effect [18]: rapid and transient hypertension

O=c1ccn([C@@H]2O[C@H](COP(=O)(O)OP(=O)(O)OP(=O)(O)O)[C@@H](O)[C@H]2O)c(=O)[nH]1 [UTP]
concentration effecting maximal migration of phagocytes [12]: about 100 nM
maximal migration of phagocytes, increase [12]: threefold

C=C1/C(=C\C=C2/CCC[C@]3(C)[C@@H]([C@H](C)CCCC(C)C)CC[C@@H]23)C[C@@H](O)C[C@@H]1O [alfacalcidiol]
patients going into remission [19]: 45%
patients with improvement of disease activity [19]: 89%

C=C1/C(=C\C=C2/CCC[C@]3(C)[C@@H]([C@H](C)/C=C/[C@@H](O)C4CC4)CC[C@@H]23)C[C@@H](O)C[C@@H]1O [calcipotriol]
solubility in 1:5 solution of ethanol:PBS [2]: approx. 0.15 mg/ml
solubility in ethanol [2]: approx. 50 mg/ml
time detectable in serum by HPLC ([20]; i.v. 10 μg/kg): up to 5 min
time detectable in serum by HPLC ([20]; i.v. 50 μg/kg): up to 10 min
rate of clearance, times higher than for 1,25-(OH)2D3 ([20]; rat, in vivo): approximately 140 times
effect on calcium metabolism, times less than 1,25-(OH)2D3 [21]: 100-200 times
systemic toxicity on topical use [22]: without systemic toxicity
antigen-specific CD8+ T cell priming [23]: abolished antigen-specific CD8+ T cell priming

C=C1CC[C@H](O)C/C1=C/C=C1\CCC[C@]2(C)[C@@H]([C@H](C)CCCC(C)C)CC[C@@H]12 [cholecalciferol]
children experiencing asthma exacerbation [24]: 17%

CC[C@H](C)[C@H](N)C(=O)N[C@H]1CSSC[C@@H](C(=O)N[C@H](C(N)=O)[C@@H](C)O)NC(=O)[C@H](CCCN=C(N)N)NC(=O)[C@H](Cc2cnc[nH]2)NC(=O)[C@H](Cc2cnc[nH]2)NC(=O)CNC(=O)[C@H](Cc2c[nH]c3ccccc23)NC(=O)[C@H](CC(=O)O)NC(=O)[C@H](CCC(N)=O)NC(=O)[C@H](C(C)C)NC(=O)[C@H](C(C)C)NC1=O [compstatin]
procoagulant response and organ protection [26]: decrease the procoagulant response

CC/C=C\C[C@H](O)/C=C/C=C\C=C\C=C\[C@@H](O)[C@@H](O)C/C=C\CCC(=O)O [resolvin D1]
EC50 [7]: ~0.03 µM

MT-hsp65: 65 kDa heat shock protein of Mycobacterium tuberculosis
diabetes development ([29]; single i.p. 50 μg emulsified in IFA): developed within 30 days after the treatment diabetes
diabetes development ([29]; single i.p. injection in PBS): did not cause the development of diabetes

PMX53
safety and tolerability [30]: safe and well tolerated
half-life ([17]; in vivo): 1.17 h

TFGLQLELT [nonapeptide 180-188]
rats showing clinical symptoms of adjuvant arthritis during pretreatment ([31]; i.p. 100 μg in FIA, 35 days before induction): none of the rats
rats completely protected against subsequently induced adjuvant arthritis ([31]; three times 100 μg in FIA before induction): 11 out of 16

vitamin D
relative risk of type 1 diabetes over the subsequent 30 years ([32]; doses of exactly 50 μg/day): 0.22
relative risk of type 1 diabetes over the subsequent 30 years ([32]; doses of over 50 μg/day (2000 IU/d) during infancy): 0.14

B1: Q116D/Y119D: murine IL-4 double mutant inhibiting IL-4/IL-13-mediated effects (protein, UniProt P07750 21-140, looked up, variant Q116D Y119D)
Interleukin-4: HIHGCDKNHLREIIGILNEVTGEGTPCTEMDVPNVLTATKNTTESELVCRASKVLRIFYLKHGKTPCLKKNSSVLMELQRLFRAFRCLDSSISCTMNESKSTSLKDFLESLKSIMDMDDS
outcome versus SIT with OVA only [33]: did not produce significantly different results
humoral immune responses to OVA and allergic symptoms [34]: completely abrogated
